Laboratory results reported in ChEMBL document CHEMBL3808331, “Functionalized N,N-Diphenylamines as Potent and Selective EPAC2 Inhibitors” (ACS Med Chem Lett, 2016).
Calls of active or inactive are those of the source. No cut-off for these calls is given here.

Columns and labels:
[1] = biological target: T1, Rap guanine nucleotide exchange factor 4 (Homo sapiens, UniProt Q8WZA2); test: Inhibition of 8-NBD-cAMP binding to EPAC2 (unknown origin) by microplate reader analysis
[2] = biological target: T2, Rap guanine nucleotide exchange factor 3 (Homo sapiens) (UniProt O95398); test: Inhibition of EPAC1 (unknown origin) assessed as reduction in cAMP-mediated guanine nucleotide exchange factor activity up to 100 uM in presence of C-terminal truncated Rap1B (1 to 167 residues)-BODIPY-GDP by microplate reader analysis
T2 sequence (whole entry): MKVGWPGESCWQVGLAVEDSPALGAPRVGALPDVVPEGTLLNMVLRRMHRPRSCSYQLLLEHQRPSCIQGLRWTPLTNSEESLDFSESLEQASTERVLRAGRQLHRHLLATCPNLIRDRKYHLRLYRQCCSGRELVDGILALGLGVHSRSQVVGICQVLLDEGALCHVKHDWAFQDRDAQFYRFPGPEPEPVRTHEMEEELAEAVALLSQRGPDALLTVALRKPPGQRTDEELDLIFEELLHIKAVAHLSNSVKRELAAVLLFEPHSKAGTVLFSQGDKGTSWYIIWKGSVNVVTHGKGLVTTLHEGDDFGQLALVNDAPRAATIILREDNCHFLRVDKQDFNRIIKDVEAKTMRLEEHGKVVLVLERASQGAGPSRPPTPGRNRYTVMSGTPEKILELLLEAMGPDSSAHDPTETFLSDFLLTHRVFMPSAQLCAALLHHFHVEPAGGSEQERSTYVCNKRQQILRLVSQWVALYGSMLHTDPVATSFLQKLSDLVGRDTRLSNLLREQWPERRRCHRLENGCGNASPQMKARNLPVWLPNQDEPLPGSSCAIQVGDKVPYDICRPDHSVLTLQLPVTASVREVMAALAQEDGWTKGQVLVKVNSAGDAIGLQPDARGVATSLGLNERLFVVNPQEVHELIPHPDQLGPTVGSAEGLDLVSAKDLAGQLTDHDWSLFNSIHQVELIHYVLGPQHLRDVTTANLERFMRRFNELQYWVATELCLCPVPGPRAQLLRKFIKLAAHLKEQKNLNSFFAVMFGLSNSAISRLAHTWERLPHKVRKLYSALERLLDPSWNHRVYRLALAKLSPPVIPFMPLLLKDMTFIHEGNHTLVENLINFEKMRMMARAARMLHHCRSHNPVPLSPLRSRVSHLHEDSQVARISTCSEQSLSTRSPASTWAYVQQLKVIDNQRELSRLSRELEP

[3] = biological target: T1, Rap guanine nucleotide exchange factor 4; test: Inhibition of EPAC2 (unknown origin) assessed as reduction in cAMP-mediated guanine nucleotide exchange factor activity in presence of C-terminal truncated Rap1B (1 to 167 residues)-BODIPY-GDP by microplate reader analysis; settings: for inhibition: concentration not given here
[4] = biological target: T1, Rap guanine nucleotide exchange factor 4; test: Non-competitive inhibition of EPAC2 (unknown origin) assessed as reduction in cAMP-mediated guanine nucleotide exchange factor activity at 1 uM in presence of C-terminal truncated Rap1B (1 to 167 residues)-BODIPY-GDP
Target sequence in this assay (Q8WZA2 whole entry, looked up, the tested form may be a part): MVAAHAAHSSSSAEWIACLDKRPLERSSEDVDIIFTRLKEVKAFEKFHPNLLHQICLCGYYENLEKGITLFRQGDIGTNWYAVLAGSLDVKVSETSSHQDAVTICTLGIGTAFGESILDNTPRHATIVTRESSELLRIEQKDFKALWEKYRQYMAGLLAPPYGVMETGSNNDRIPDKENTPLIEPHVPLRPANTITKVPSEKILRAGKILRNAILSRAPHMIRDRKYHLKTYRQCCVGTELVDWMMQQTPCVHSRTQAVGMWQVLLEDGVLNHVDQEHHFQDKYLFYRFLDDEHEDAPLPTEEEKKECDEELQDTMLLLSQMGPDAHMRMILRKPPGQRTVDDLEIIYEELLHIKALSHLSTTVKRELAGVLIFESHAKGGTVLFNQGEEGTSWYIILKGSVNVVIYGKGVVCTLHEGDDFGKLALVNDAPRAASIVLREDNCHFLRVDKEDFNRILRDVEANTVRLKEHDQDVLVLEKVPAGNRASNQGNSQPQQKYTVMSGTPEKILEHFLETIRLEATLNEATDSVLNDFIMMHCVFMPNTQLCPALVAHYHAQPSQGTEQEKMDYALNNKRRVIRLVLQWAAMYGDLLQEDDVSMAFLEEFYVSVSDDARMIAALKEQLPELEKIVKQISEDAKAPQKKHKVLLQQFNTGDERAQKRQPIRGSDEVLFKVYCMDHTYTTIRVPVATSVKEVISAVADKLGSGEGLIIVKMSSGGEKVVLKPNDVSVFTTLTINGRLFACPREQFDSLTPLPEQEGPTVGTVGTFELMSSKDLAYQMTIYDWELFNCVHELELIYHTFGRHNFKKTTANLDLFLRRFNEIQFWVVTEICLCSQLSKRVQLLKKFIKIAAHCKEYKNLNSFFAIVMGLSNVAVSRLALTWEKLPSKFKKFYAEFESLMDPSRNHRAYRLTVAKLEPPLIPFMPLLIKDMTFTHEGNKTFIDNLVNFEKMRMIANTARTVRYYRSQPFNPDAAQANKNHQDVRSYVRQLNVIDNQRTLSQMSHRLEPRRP

Row | IC50 [1] [nM] | Structure (SMILES) | further results
1 | 34000 | Cc1cc(C)c(Nc2cccc(N)c2)c(C)c1 | 
2 | 2900 | Cc1cc(C)c(Nc2cc(F)cc(Cl)c2)c(C)c1 | 
3 | 1800 | Cc1cc(C)c(Nc2ccc(C)c(Cl)c2)c(C)c1 | 
4 | 1100 | Cc1cc(C)c(Nc2ccc(Cl)c(Cl)c2)c(C)c1 | 
5 | 500 | Cc1cc(C)c(Nc2cccc(Cl)c2C)c(C)c1 | inhibition [2]: inactive; inhibition [1]: Dose-dependent effect; inhibition ([1]; concentration not given here): 80%; IC50 [3]: 3600 nM; inhibition [3]: > 80%
6 | 1800 | CCc1cccc(Nc2c(C)cc(C)cc2C)c1 | 
7 | 400 | Cc1cc(C)c(Nc2ccc(Cl)c(C(F)(F)F)c2)c(C)c1 | inhibition [4]: Active; inhibition [2]: inactive; inhibition [1]: Dose-dependent effect; inhibition ([1]; concentration not given here): 80%; IC50 [3]: 1000 nM; inhibition [3]: > 80%
8 | 1700 | Cc1cc(C)cc(Nc2c(C)cc(C)cc2C)c1 | 
9 | 2900 | Cc1cc(C)c(Nc2ccc(F)c(Cl)c2)c(C)c1 | 
10 | 5700 | Cc1cc(C)c(Nc2cc(F)cc(F)c2)c(C)c1 | 
11 | 600 | Cc1cc(C)c(Nc2cc(C(F)(F)F)cc(C(F)(F)F)c2)c(C)c1 | inhibition [2]: inactive; inhibition [1]: Dose-dependent effect; inhibition ([1]; concentration not given here): 60%; IC50 [3]: 1300 nM; inhibition [3]: > 80%
12 | 8700 | Cc1cc(C)c(Nc2ccc(F)c(F)c2)c(C)c1 | 
13 |  | CC(C)(C)c1cc(C(=O)/C(C#N)=N/Nc2cccc(Cl)c2)no1 | inhibition [3]: > 80%
14 | 1000 | Cc1cc(C)c(Nc2cccc(C)c2C)c(C)c1 | 
15 | 1800 | Cc1cc(C)c(Nc2ccc3c(c2)CCC3)c(C)c1 | 
16 | 10700 | COc1cccc(Nc2c(C)cc(C)cc2C)c1 | 

Row | IC50 [1] [nM] | Structure (SMILES) | further results
17 | 700 | Cc1cc(C)c(Nc2c(C)cc(Cl)cc2Cl)c(C)c1 | 
18 | > 300000 | Cc1cc(C)c(C#Cc2cccc(Nc3c(C)cc(C)cc3C)c2)c(C)c1 | 
19 | 1800 | Cc1cc(C)c(Nc2cc(C)ccc2C)c(C)c1 | 
20 | 1100 | Cc1cc(C)c(Nc2cc(Cl)c(Cl)c(Cl)c2)c(C)c1 | 
21 | 2000 | Cc1cc(C)c(Nc2cccc(C(F)(F)F)c2)c(C)c1 | 
22 | 46000 | Cc1cc(C)c(Nc2cccc(O)c2)c(C)c1 | 
23 | 5800 | Cc1cc(C)c(Nc2cccc(F)c2)c(C)c1 | 
24 | 400 | Cc1cc(C)c(Nc2c(C)cc(C)cc2C)c(C)c1 | inhibition [2]: inactive; inhibition [1]: Dose-dependent effect; inhibition ([1]; concentration not given here): 80%; IC50 [3]: 1700 nM; inhibition [3]: > 80%
25 | 1500 | Cc1cc(C)c(Nc2cccc(Br)c2)c(C)c1 | 
26 | 1400 | Cc1cc(C)c(Nc2cc(Cl)ccc2C)c(C)c1 | 
27 | 2200 | Cc1ccc(Nc2c(C)cc(C)cc2C)c(C)c1 | 
28 | 1600 | Cc1cc(C)c(Nc2ccc(Br)cc2)c(C)c1 | 
29 | 3300 | Cc1cc(C)c(Nc2ccc(Cl)c(F)c2)c(C)c1 | 
30 | 3000 | Cc1cc(C)c(Nc2cc(F)c(F)c(F)c2)c(C)c1 | 
31 | 2700 | Cc1cc(C)c(Nc2c(F)cc(F)cc2F)c(C)c1 | 
32 | 500 | Cc1cc(C)c(Nc2cc(Cl)cc(C(F)(F)F)c2)c(C)c1 | 
